Experimental data taken from paper PMC7957705 (Molecules, 2021).
“Also recorded” adds a separate entry of the source. Read-outs that look alike come from different tables or passages of the source. Where a SMILES comes first, the peptide text is derived from it. Bridges are numbered along the chain shown (N, C = ends). Triazole bridges read from a SMILES are 1,4-linked. [ ]: non-standard residue; d: D form. The star is where a group is joined. Benzoyl(4-guanidino) = N=C(N)Nc1ccc(C(=O)*)cc1; Aha = [N-]=[N+]=NCC[C@H](N)C(=O)O; β3hV = CC(C)[C@H](N)CC(=O)O; Nle = CCCC[C@H](N)C(=O)O; Pra = C#CC[C@H](N)C(=O)O

What was measured:
[1] = format: in vitro ADME; details: for half-life: plasma
Experimental: Plasmas from 3 species (including commercially available human healthy donors) were adjusted to pH 7.4 if necessary. Incubations were performed at a concentration of 1 µM of the compound at 37 °C (in the presence of a final concentration of DMSO of 2.5% v/v. The incubations were stopped at 0, 15, 30, 60 and 120 min by methanol. Each time point was run in sextuplets. The sampling plates were then centrifuged (2500 rpm, 45 min, 4 °C) and the supernatants pooled. Samples were analyzed for parent compound by LC-MS/MS. The percentage of parent compound remaining at each time point relative to the 0 min sample is then calculated from LC-MS/MS peak area ratios. Then, the stability in plasma was evaluated by incubating human, rat or mouse plasma with the compound(s) as follows: the product (0.1 µM in TRIS buffer pH 7.4 0.1% BSA) was incubated with the plasma at 37 °C. The disappearance of the product was measured at 15, 45, 120, 240 and 300 min by mass spectrometry. Incubations were carried out in a robot Star (Hamilton France, Villebon-sur-Yvette, France). At each sampling time, 50 µL of the reaction medium was removed and diluted with 100 µL of acetonitrile. After centrifugation (20 min at + 4 °C, 4000 rpm), 75 µL of the supernatants was transferred into a 384 well injection plate. Ten microliters were injected onto UPLC coupled with a XEVO TQS mass spectrometer system (Waters, Milford, MA, USA). The unchanged product is quantified using a reference sample (0.1 µM) prepared during the incubation process. A second reference sample at 0.01 µM is prepared in the same conditions to verify the linearity of the detection method. The peak height (or area) is measured to calculate the half-life of the compound.

fa/fa rats = assay: Genetic model of obesity (fa/fa rats); format: in vivo, rat; details: data not shown
[2] = system: high-fat diet-induced obese C57BL/6 mice; assay: Diet-induced obesity model: adipose tissue weights; format: in vivo, mouse
Experimental: Male C57BL/6 mice at 4 weeks of age were provided by BioLasco Taiwan (under Charles River Laboratories Licensee). All animals were maintained in an environment with well-controlled temperature (20–24 °C) and humidity (30–70%) with 12 h light/dark cycles. Free access to standard lab diet (MFG (Oriental Yeast Co., Ltd., Japan)) and autoclaved tap water was granted. All aspects of this work including housing, experimentation, and animal disposal were performed in general accordance with the “Guide for the Care and Use of Laboratory Animals: Eighth Edition” (National Academies Press, Washington, D.C., 2011) in our laboratory animal facility accredited by the […]. In addition, the protocol for animal care and use was reviewed and approved by the Institutional Animal Care and Use Committee (IACUC) at Pharmacology Discovery Services Taiwan, Ltd.
The protocol was performed for all groups and all animals. Male C57BL/6 mice were fed a high-fat diet (HFD) (60% of calories) or a standard chow diet (STD) from 4 weeks of age. Thirty (30) mice were fed the HFD and 10 mice were fed the STD (for 8 weeks before treatment) for a total of 20 weeks. The mice assigned to the STD diet were maintained on this diet throughout the study as a reference group of lean control mice. From Week 9, HFD-fed mice were grouped by body weight before dosing. Body weight was recorded three times weekly from Week 9. Food/water intake was recorded twice weekly from Week 9. Blood chemistry analyzes were performed in Weeks 8 (before dosing, Day 56), 16 (Day 113) and 20 (Day 141), including serum insulin, total cholesterol (T-CHO), triglyceride (TG), alanine aminotransferase (ALT), aspartate aminotransferase (AST), uric acid (UA), creatinine, potassium (K^+) and sodium (Na^+). At the termination in Week 20 (Day 141), the adipose tissue weight, including epididymal, mesenteric, inguinal, retroperitoneal, and brown fat, was measured after the animals were sacrificed. Two-way ANOVA followed by Bonferroni’s tests were applied to ascertain the difference between vehicle control and treated animals. Significance was set at p < 0.05 level. The following parameters were measured: (1) body weight three times weekly; (2) food/water intake twice weekly; (3) blood chemistry in Weeks 8 (before dosing), 16 and 20 including glucose, insulin, serum lipids (triglycerides (TG), total cholesterol (TC), AST, alanine aminotransferase (ALT), uric acid, creatinine, potassium and sodium through 16-h fasting animals; and finally, (4) total body fat (including visceral and subcutaneous fat) in Week 20.

[3] = system: high-fat diet-induced obese C57BL/6 mice; details: mouse, in vivo
Experimental: (§1) Male C57BL/6 mice at 4 weeks of age were provided by BioLasco Taiwan (under Charles River Laboratories Licensee). All animals were maintained in an environment with well-controlled temperature (20–24 °C) and humidity (30–70%) with 12 h light/dark cycles. Free access to standard lab diet (MFG (Oriental Yeast Co., Ltd., Japan)) and autoclaved tap water was granted. […]
(§2) The protocol was performed for all groups and all animals. […] Body weight was recorded three times weekly from Week 9. Food/water intake was recorded twice weekly from Week 9. […] At the termination in Week 20 (Day 141), the adipose tissue weight, including epididymal, mesenteric, inguinal, retroperitoneal, and brown fat, was measured after the animals were sacrificed. […] The following parameters were measured: (1) body weight three times weekly; (2) food/water intake twice weekly; (3) blood chemistry in Weeks 8 (before dosing), 16 and 20 including glucose, insulin, serum lipids (triglycerides (TG), total cholesterol (TC), AST, alanine aminotransferase (ALT), uric acid, creatinine, potassium and sodium through 16-h fasting animals; and finally, (4) total body fat (including visceral and subcutaneous fat) in Week 20.

human MCH-R1 = target: T1, human MCH-R1 (Homo sapiens, UniProt Q99705); assay: MCH-induced cytosolic Ca2+ ion mobilization, antagonist effect; format: cell-based
T1 construct: expressed in transfected cells
Experimental: The functional assay was run onto cells expressing the hMCH-R1 receptor, as described in Wang et al.. In brief, the cells are suspended in DMEM buffer (Invitrogen), then distributed in microplates at a density of 4.104 cells/well. The fluorescent probe (Fluo4 Direct, Invitrogen) mixed with probenecid in Hanks’ Balanced Salt solution (HBSS) (Invitrogen) complemented with 20 mM HEPES (Invitrogen) (pH 7.4) is then added into each well and equilibrated with the cells for 60 min at 37 °C, then 15 min at 22 °C. Then, the assay plates are positioned in a microplate reader (CellLux, PerkinElmer) which is used for the addition of the test compound, reference agonist or HBSS buffer (basal control), and the measurements of changes in fluorescence intensity, which varies proportionally to the free cytosolic Ca^2+ ion concentration. For stimulated control measurements, MCH at 300 nM is added in separate assay wells. The results are expressed as a percentage of the control response to 300 nM MCH. The standard reference agonist is MCH, which is tested in each experiment at several concentrations to generate a concentration-response curve from which its EC50 value is calculated. For the antagonist effect, the results are expressed as a percentage inhibition of the control response to 30 nM MCH, which was added to all tested wells and controls 5 min after the candidate products.

[4] = system: high-fat diet-induced obese C57BL/6 mice; assay: Diet-induced obesity model: food and water intake; format: in vivo, mouse; details: 5 and 10 mg/kg i.p. once daily, HFD mice
Experimental: as §1, §2

[5] = 5 and 10 mg/kg i.p. once daily for 12 weeks, Week 20 (Day 141)

T1 sequence (Q99705 whole entry): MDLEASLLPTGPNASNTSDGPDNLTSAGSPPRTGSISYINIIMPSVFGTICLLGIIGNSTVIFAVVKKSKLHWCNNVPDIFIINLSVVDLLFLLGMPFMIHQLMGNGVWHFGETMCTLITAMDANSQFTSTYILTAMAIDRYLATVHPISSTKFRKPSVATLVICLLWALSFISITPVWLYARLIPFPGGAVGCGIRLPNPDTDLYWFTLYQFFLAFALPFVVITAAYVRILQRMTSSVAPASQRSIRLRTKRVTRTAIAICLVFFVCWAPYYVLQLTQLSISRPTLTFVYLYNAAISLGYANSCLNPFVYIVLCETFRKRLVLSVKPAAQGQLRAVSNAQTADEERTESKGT

Q: What does the source list for `CCCC[C@@H]1NC(=O)[C@@H](NC(=O)c2ccc(NC(=N)N)cc2)CCn2cc(nn2)C[C@@H](C(=O)N[C@@H](Cc2c[nH]c3ccccc23)C(=O)O)NC(=O)[C@@H]2CCCN2C(=O)[C@H](CCCNC(=N)N)NC(=O)C[C@H](C(C)C)NC(=O)[C@H](CCCNC(=N)N)NC(=O)[C@H](CC(C)C)NC1=O` [GPS18169] ({Benzoyl(4-guanidino)}-[Aha][Nle]LR[β3hV]RP[Pra]W-OH; triazole 1-8)?
A: half-life ([1]; human): ≥ 5 h; initial dose remaining after incubation in mice plasma ([1]; mouse): about 50%; half-life ([1]; mouse): 2.92 ± 0.283 h; half-life ([1]; rat): ≥ 5 h; changes between treated and untreated animals (fa/fa rats): no changes were recorded; adipose tissue weight / accumulation ([2]; 5 and 10 mg/kg i.p. once daily for 12 weeks): active in limiting the accumulation of adipose tissues; also recorded: significant decrease; weight of brown fat [2, 5]: significant (p < 0.05) decrease; weight of inguinal fat [2, 5]: significant (p < 0.05) decrease; weight of mesenteric fat [2, 5]: significant (p < 0.05) decrease; weight of retroperitoneal fat [2, 5]: significant (p < 0.05) decrease; weight ratio of adipose tissue to the whole body ([2]; g/100 g of body weight): constant; overt toxicities and behavioral modifications [3]: Neither overt toxicities nor behavioral modifications were observed; antagonistic functionality (in words) (human MCH-R1): high picomolar range; Ki (human MCH-R1; antagonism of MCH-induced cytosolic Ca2+ mobilization, read-out: Ki (functionality, antagonism at MCH-R1)): 0.028 nM; food intake, treated vs vehicle [4]: no change; water intake, treated vs vehicle [4]: no change
